Assay results published in patent US11345700B2, “Methods of preparing inhibitors of influenza viruses replication” (priority 2013, dated 2022).

Test system: influenza A strains
Assay: microbe, parasite or virus in culture
Format: cell-based
Details: H3N2, MDCK, read-out: Cell Protection Assay EC50 ± SD, A/Texas/12/2007, H3N2, amantadine resistance (phenotypic), oseltamivir carboxylate resistance NA 119V

Question: With O=C(O)[C@H]1[C@H]2CC[C@H](CC2)[C@@H]1Nc1nc(-c2c[nH]c3ncc(F)cc23)ncc1F [Compound (1)] as the compound, how does the EC50 read?
Answer: Its EC50 is 0.65 ± 0.22 nM.
